These results are taken from patent publication US20080280817A1, “MODIFIED AMINO ACID FOR THE INHIBITION OF PLATELET AGGREGATION” (NOVARTIS AG, priority 2002, published 2008).

A value given as a limit tells only on which side of the number the result lay.

What all share (type): cell-based, human
For data set [1], the system named is platelet rich plasma (PRP). The data set can be described thus: Addition of 5-CNAC alone to PRP; platelet morphology. The protocol:
(§1) Freshly drawn venous blood from healthy volunteers is collected into 0.1 vol. […] trisodium citrate. The donors have not taken any medication during two weeks prior to blood collection. PRP is prepared by centrifugation of the freshly drawn blood (150 g, 15 minutes at 22° C.) and the final platelet concentration is standardized at 200 000 cell/μL by dilution in autologous platelet-free plasma, prepared by centrifugation (1200 g, 10 minutes at 22° C.). The supernatant is collected. Samples of PRP are pre-incubated for 1 minute (22° C.) with varying concentrations of 5-CNAC in saline (stored at −20° C.).
In order to assess the inhibitory effect of 5-CNAC on platelet aggregation, the following studies are performed. Samples of 0.400 mL PRP containing 5-CNAC are prepared as above. To these samples is added 0.005 mL of an aggregation stimulator which is either ADP (Roche Molecular Biochemicals, Mannheim) or collagen (Horm Chemie, Munich). The final concentrations of either the ADP or collagen are as indicated in the “Results” section. […] The extent of aggregation is measured by expressing the maximal difference in optical density (independent of the time after the addition of the aggregation stimulator, i.e., either ADP or collagen) and normalized taking the control curves (without 5-CNAC) as an internal standard set at 100%.

The test system of data set [2] is platelet rich plasma (PRP). Kind of data set: Collagen-stimulated platelet aggregation in PRP (aggregometer, optical density). The protocol: as §1
(§2) In order to assess the inhibitory effect of 5-CNAC on platelet aggregation, the following studies are performed. Samples of 0.400 mL PRP containing 5-CNAC are prepared as above. To these samples is added 0.005 mL of an aggregation stimulator which is either ADP (Roche Molecular Biochemicals, Mannheim) or collagen (Horm Chemie, Munich). The final concentrations of either the ADP or collagen are as indicated in the “Results” section. Aggregation studies are performed in a Chronolog 4 channel aggregometer (type CH570VS-CH810). The aggregometer automatically calibrates the donor-dependent difference in optical density between platelet-free plasma (0% optical density) and the PRP (100% optical density) of a particular donor. The extent of aggregation is measured by expressing the maximal difference in optical density (independent of the time after the addition of the aggregation stimulator, i.e., either ADP or collagen) and normalized taking the control curves (without 5-CNAC) as an internal standard set at 100%.

The test system of data set [3] is platelet rich plasma (PRP). The data set can be described thus: ADP-induced platelet aggregation in PRP (aggregometer, optical density). The protocol:
as §1, §2

On to `O=C(O)CCCCCCCNC(=O)c1cc(Cl)ccc1O` [5-CNAC, N-(5-chlorosalicyloyl)-8-aminocaprylic acid], for which, in data set [1] (5-CNAC alone added to PRP, no stimulator), the “triggering of platelet aggregation by the compound alone” value was “does not trigger platelet aggregation”. Also, the “effect on platelet morphology (swirling of the cells)” value in data set [1] (PRP) is recorded as “does not alter platelet morphology”. For the same compound, the “concentration at which inhibition is evident” value in data set [2] (1 μg/mL collagen) was ≥ 50 µM. In data set [2] (2 μg/mL collagen, one individual), the “concentration showing platelet aggregation inhibition” value was “about 1 mM”. Besides, in data set [2] (2.5 μg/mL collagen, PRP of one individual, not at lower concentrations), the “concentration giving some inhibition of platelet aggregation” value worked out at 200 µM. In data set [2] (5 μg/mL collagen), the “concentration at which inhibition of platelet aggregation becomes detectable” value is “about 1 mM”. Also, the “effect on platelets (aggregation)” value in data set [2] (5 μg/mL collagen, 100 μM 5-CNAC) is “unaffected”. For the same compound, the “phase of the aggregation curve in which inhibition is seen” value in data set [2] (collagen-stimulated aggregation) is “becomes apparent in the second phase of the aggregation curve”; in data set [3] (all concentrations of ADP tested), “evident in the second phase of the aggregation curve, but is not observed in the initial phase”. The “inhibition of platelet aggregation at suboptimal ADP stimulation” value in data set [3] (3 μM and 2 μM ADP compared with 5 μM ADP) was “platelet aggregation is inhibited by lower concentrations of 5-CNAC”. Besides, the “concentration at which inhibition of platelet aggregation becomes apparent” value in data set [3] (5 μM ADP (maximal stimulation), PRP from 12 healthy subjects) was ≥ 2 µM. Moreover, the “change in cell shape upon ADP addition (increase in optical density)” value in data set [3] (in the presence of 5-CNAC) is recorded as “undisturbed”. In addition, in data set [3] (later part of the aggregation curve), the “inhibition of secondary aggregation” value is reported as “dose-dependently inhibits the later part of the aggregation curve”.
